Molecules are shown by their SMILES. *1 amine or outer side, *2 acyl side, *3 side chain or, on linkers, in order; H or OH if unused. Where a SMILES comes first, the peptide text is derived from it. [ ]: non-standard residue; d: D form. Trp(βS-Me,4-F) = C[C@@H](c1c[nH]c2cccc(F)c12)[C@H](N)C(=O)O; Bip(4'-COOH) = N[C@@H](Cc1ccc(-c2ccc(C(=O)O)cc2)cc1)C(=O)O; Phe(3-CH2NH2) = O=C([C@H](Cc1cccc(CN[*:3])c1)N[*:1])[*:2]; 1Nal(3S-Me) = C[C@@H](c1cccc2ccccc12)[C@H](N)C(=O)O; X11 = O=C([C@@H]1C[C@@H](NCc2ccccc2)CN1[*:1])[*:2]; X5 = O=C([C@@H]1C[C@@H](NCCc2ccccc2)CN1[*:1])[*:2]; Phe(3-allyloxy) = C=CCOc1cccc(C[C@H](N)C(=O)O)c1; Phe(3-Ph) = N[C@@H](Cc1cccc(-c2ccccc2)c1)C(=O)O; Phe(4-COOH) = N[C@@H](Cc1ccc(C(=O)O)cc1)C(=O)O; Pro(4R-NH2) = N[C@H]1CN[C@H](C(=O)O)C1; hTyr = N[C@@H](CCc1ccc(O)cc1)C(=O)O; dDab = NCC[C@@H](N)C(=O)O; dNMeA = CN[C@H](C)C(=O)O; Nva = CCC[C@H](N)C(=O)O; Dap = NC[C@H](N)C(=O)O

The source of these data is patent US20230406885A1, “CYCLIC PEPTIDES FOR TRAPPING INTERLEUKIN-1 BETA” (MERCK SHARP & DOHME LLC, priority 2022, published 2023).

T1 sequence (P01584 117-269): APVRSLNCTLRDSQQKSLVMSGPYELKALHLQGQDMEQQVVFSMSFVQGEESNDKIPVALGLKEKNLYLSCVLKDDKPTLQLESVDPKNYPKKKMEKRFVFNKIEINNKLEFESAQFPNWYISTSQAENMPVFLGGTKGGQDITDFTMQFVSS

This experiment has as its target T1, Recombinant human IL-1β (Homo sapiens, UniProt P01584).
T1 construct: purchased BioLegend 579404
In words: IL-6 assay in MRC5 cells: inhibition of IL-1β induced IL-6 secretion (AlphaLISA). It is filed as cell-based. The settings on record: inhibition of IL-1β induced IL-6 secretion in MRC5 cells; IL-1β pre-incubated 1 hour with compound; read-out: MRC5 IC50. In outline: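 IL-1β at 2×EC80 in seeding medium (EMEM, 0.025% BSA) preincubated 1 h at ambient temperature with compound, then 3000 MRC5 cells/well added and incubated overnight at 37 °C, 5% CO2. IL-6 in conditioned medium quantified by AlphaLISA; IC50 from 4-parameter logistic fit.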
On the technique in general: Bead proximity is the source of the signal in Alpha formats.
The IC50 is the concentration that inhibits the measured activity by half. With `CCC[C@@H]1NC(=O)[C@H](CCCCN)NC(=O)[C@H](Cc2ccc(-c3ccc(C(=O)O)cc3)cc2)NC(=O)CNC(=O)[C@@H](C)N(C)C(=O)[C@H](CC(=O)O)NC(=O)[C@H]([C@@H](C)c2c[nH]c3cccc(F)c23)NC(=O)[C@@H]2C[C@@H](N)CN2C(=O)CNC(=O)[C@H](Cc2ccc(C(=O)O)cc2)NC(=O)[C@H](Cc2c[nH]c3ccccc23)NC(=O)[C@H](Cc2ccc(-c3ccc(C(=O)O)cc3)cc2)NC(=O)[C@H](CCc2ccc(O)cc2)NC(=O)[C@@H](C)NC1=O` [Example 71] (cyclo([Bip(4'-COOH)]W[Phe(4-COOH)]G[Pro(4R-NH2)][Trp(βS-Me,4-F)]D[dNMeA]G[Bip(4'-COOH)]K[Nva][dA][hTyr])), the IC50 stood at 0.0926 nM.
Next, `C[C@@H]1C(=O)NCC(=O)N[C@@H](Cc2ccc(-c3ccc(C(=O)O)cc3)cc2)C(=O)N[C@@H](CCCCN)C(=O)N[C@@H](CO)C(=O)N[C@H](C)C(=O)N[C@@H](CCc2ccc(O)cc2)C(=O)N[C@@H](Cc2ccc(-c3ccc(C(=O)O)cc3)cc2)C(=O)N[C@@H](Cc2c[nH]c3ccccc23)C(=O)N[C@@H](Cc2ccc(C(=O)O)cc2)C(=O)NCC(=O)N2C[C@H](N)C[C@H]2C(=O)N[C@@H]([C@@H](C)c2c[nH]c3cccc(F)c23)C(=O)N[C@@H](CC(=O)O)C(=O)N1C` [Example 72] (cyclo([Bip(4'-COOH)]W[Phe(4-COOH)]G[Pro(4R-NH2)][Trp(βS-Me,4-F)]D[dNMeA]G[Bip(4'-COOH)]KS[dA][hTyr])): 0.107 nM.
Under `CC(C)C[C@@H]1NC(=O)[C@H](Cc2cccc(CN)c2)NC(=O)[C@H](Cc2ccc(-c3ccc(C(=O)O)cc3)cc2)NC(=O)CNC(=O)[C@@H](C)N(C)C(=O)[C@H](CC(=O)O)NC(=O)[C@H]([C@@H](C)c2c[nH]c3cccc(F)c23)NC(=O)[C@@H]2C[C@@H](N)CN2C(=O)CNC(=O)[C@H](Cc2ccc(C(=O)O)cc2)NC(=O)[C@H](Cc2c[nH]c3ccccc23)NC(=O)[C@H](Cc2ccc(-c3ccc(C(=O)O)cc3)cc2)NC(=O)[C@H](CCc2ccc(O)cc2)NC(=O)[C@@H](C)NC1=O` [Example 73] (cyclo([Bip(4'-COOH)]W[Phe(4-COOH)]G[Pro(4R-NH2)][Trp(βS-Me,4-F)]D[dNMeA]G[Bip(4'-COOH)][Phe(3-CH2NH2)]L[dA][hTyr])) stands 0.0509 nM; under `C[C@@H]1C(=O)NCC(=O)N[C@@H](Cc2ccc(-c3ccc(C(=O)O)cc3)cc2)C(=O)N[C@@H](Cc2cccc(CN)c2)C(=O)N[C@@H](CO)C(=O)N[C@H](C)C(=O)N[C@@H](CCc2ccc(O)cc2)C(=O)N[C@@H](Cc2ccc(-c3ccc(C(=O)O)cc3)cc2)C(=O)N[C@@H](Cc2c[nH]c3ccccc23)C(=O)N[C@@H](Cc2ccc(C(=O)O)cc2)C(=O)NCC(=O)N2C[C@H](N)C[C@H]2C(=O)N[C@@H]([C@@H](C)c2c[nH]c3cccc(F)c23)C(=O)N[C@@H](CC(=O)O)C(=O)N1C` [Example 74] (cyclo([Bip(4'-COOH)]W[Phe(4-COOH)]G[Pro(4R-NH2)][Trp(βS-Me,4-F)]D[dNMeA]G[Bip(4'-COOH)][Phe(3-CH2NH2)]S[dA][hTyr])), 0.296 nM; under `CC(C)C[C@@H]1NC(=O)[C@H](Cc2cccc(-c3ccccc3)c2)NC(=O)[C@H](Cc2ccc(-c3ccc(C(=O)O)cc3)cc2)NC(=O)CNC(=O)[C@@H](C)N(C)C(=O)[C@H](CC(=O)O)NC(=O)[C@H]([C@@H](C)c2c[nH]c3cccc(F)c23)NC(=O)[C@@H]2C[C@@H](N)CN2C(=O)CNC(=O)[C@H](Cc2ccc(C(=O)O)cc2)NC(=O)[C@H](Cc2c[nH]c3ccccc23)NC(=O)[C@H](Cc2ccc(-c3ccc(C(=O)O)cc3)cc2)NC(=O)[C@H](CCc2ccc(O)cc2)NC(=O)[C@@H](C)NC1=O` [Example 75] (cyclo([Bip(4'-COOH)]W[Phe(4-COOH)]G[Pro(4R-NH2)][Trp(βS-Me,4-F)]D[dNMeA]G[Bip(4'-COOH)][Phe(3-Ph)]L[dA][hTyr])), 0.165 nM.
For `C=CCOc1cccc(C[C@@H]2NC(=O)[C@H](Cc3ccc(-c4ccc(C(=O)O)cc4)cc3)NC(=O)CNC(=O)[C@@H](C)N(C)C(=O)[C@H](CC(=O)O)NC(=O)[C@H]([C@@H](C)c3c[nH]c4cccc(F)c34)NC(=O)[C@@H]3C[C@@H](N)CN3C(=O)CNC(=O)[C@H](Cc3ccc(C(=O)O)cc3)NC(=O)[C@H](Cc3c[nH]c4ccccc34)NC(=O)[C@H](Cc3ccc(-c4ccc(C(=O)O)cc4)cc3)NC(=O)[C@H](CCc3ccc(O)cc3)NC(=O)[C@@H](C)NC(=O)[C@H](CC(C)C)NC2=O)c1` [Example 76] (cyclo([Bip(4'-COOH)]W[Phe(4-COOH)]G[Pro(4R-NH2)][Trp(βS-Me,4-F)]D[dNMeA]G[Bip(4'-COOH)][Phe(3-allyloxy)]L[dA][hTyr])), the IC50 came to 0.122 nM.
Under `C[C@@H]1C(=O)NCC(=O)N[C@@H](Cc2ccc(-c3ccc(C(=O)O)cc3)cc2)C(=O)N[C@@H](Cc2c[nH]c3ccccc23)C(=O)NCC(=O)N[C@H](CCN)C(=O)N[C@@H](CCc2ccc(O)cc2)C(=O)N[C@@H](Cc2ccc(-c3ccc(C(=O)O)cc3)cc2)C(=O)N[C@@H](Cc2c[nH]c3ccccc23)C(=O)N[C@@H](Cc2ccc(C(=O)O)cc2)C(=O)NCC(=O)N2C[C@H](N)C[C@H]2C(=O)N[C@@H]([C@@H](C)c2c[nH]c3cccc(F)c23)C(=O)N[C@@H](CC(=O)O)C(=O)N1C` [Example 77] (cyclo([Bip(4'-COOH)]W[Phe(4-COOH)]G[Pro(4R-NH2)][Trp(βS-Me,4-F)]D[dNMeA]G[Bip(4'-COOH)]WG[dDab][hTyr])) stands 0.0601 nM; under `CC(C)C[C@@H]1NC(=O)[C@H](Cc2c[nH]c3ccccc23)NC(=O)[C@H](Cc2ccc(-c3ccc(C(=O)O)cc3)cc2)NC(=O)CNC(=O)[C@@H](C)N(C)C(=O)[C@H](CC(=O)O)NC(=O)[C@H]([C@@H](C)c2c[nH]c3cccc(F)c23)NC(=O)[C@@H]2C[C@@H](N)CN2C(=O)CNC(=O)[C@H](Cc2ccc(C(=O)O)cc2)NC(=O)[C@H](Cc2c[nH]c3ccccc23)NC(=O)[C@H](Cc2ccc(-c3ccc(C(=O)O)cc3)cc2)NC(=O)[C@H](CCc2ccc(O)cc2)NC(=O)[C@@H](C)NC1=O` [Example 78] (cyclo([Bip(4'-COOH)]W[Phe(4-COOH)]G[Pro(4R-NH2)][Trp(βS-Me,4-F)]D[dNMeA]G[Bip(4'-COOH)]WL[dA][hTyr])), 0.0732 nM; under `CCC[C@@H]1NC(=O)[C@H](Cc2c[nH]c3ccccc23)NC(=O)[C@H](Cc2ccc(-c3ccc(C(=O)O)cc3)cc2)NC(=O)CNC(=O)[C@@H](C)N(C)C(=O)[C@H](CC(=O)O)NC(=O)[C@H]([C@@H](C)c2c[nH]c3cccc(F)c23)NC(=O)[C@@H]2C[C@@H](N)CN2C(=O)CNC(=O)[C@H](Cc2ccc(C(=O)O)cc2)NC(=O)[C@H](Cc2c[nH]c3ccccc23)NC(=O)[C@H](Cc2ccc(-c3ccc(C(=O)O)cc3)cc2)NC(=O)[C@H](C)NC(=O)[C@@H](C)NC1=O` [Example 79] (cyclo([Bip(4'-COOH)]W[Phe(4-COOH)]G[Pro(4R-NH2)][Trp(βS-Me,4-F)]D[dNMeA]G[Bip(4'-COOH)]W[Nva][dA]A)), 0.189 nM.
Next, `CC(C)C[C@@H]1NC(=O)[C@H](CCCCN)NC(=O)[C@H](Cc2ccc(-c3ccc(C(=O)O)cc3)cc2)NC(=O)CNC(=O)[C@@H](C)N(C)C(=O)[C@H](CC(N)=O)NC(=O)[C@H]([C@@H](C)c2c[nH]c3cccc(F)c23)NC(=O)[C@@H]2C[C@@H](N)CN2C(=O)CNC(=O)[C@H](Cc2ccc(C(=O)O)cc2)NC(=O)[C@H](Cc2c[nH]c3ccccc23)NC(=O)[C@H](Cc2ccc(-c3ccc(C(=O)O)cc3)cc2)NC(=O)[C@H](CCc2ccc(O)cc2)NC(=O)[C@@H](C)NC1=O` [Example 80] (cyclo([Bip(4'-COOH)]W[Phe(4-COOH)]G[Pro(4R-NH2)][Trp(βS-Me,4-F)]N[dNMeA]G[Bip(4'-COOH)]KL[dA][hTyr])): 0.291 nM; `CC(C)C[C@@H]1NC(=O)[C@H](CCCCN)NC(=O)[C@H](Cc2ccc(-c3ccc(C(=O)O)cc3)cc2)NC(=O)CNC(=O)[C@@H](C)N(C)C(=O)[C@H](CC(N)=O)NC(=O)[C@H]([C@@H](C)c2c[nH]c3cccc(F)c23)NC(=O)[C@@H]2C[C@@H](N)CN2C(=O)CNC(=O)[C@H](Cc2ccc(C(=O)O)cc2)NC(=O)[C@H](Cc2c[nH]c3ccccc23)NC(=O)[C@H](Cc2ccc(-c3ccc(C(=O)O)cc3)cc2)NC(=O)[C@H](CCc2ccc(O)cc2)NC(=O)[C@@H](CCN)NC1=O` [Example 81] (cyclo([Bip(4'-COOH)]W[Phe(4-COOH)]G[Pro(4R-NH2)][Trp(βS-Me,4-F)]N[dNMeA]G[Bip(4'-COOH)]KL[dDab][hTyr])): 0.255 nM.
Take `C[C@@H]1C(=O)NCC(=O)N[C@@H](Cc2ccc(-c3ccc(C(=O)O)cc3)cc2)C(=O)N[C@@H](Cc2c[nH]c3ccccc23)C(=O)N[C@@H](CN)C(=O)N[C@H](C)C(=O)N[C@@H](CCc2ccc(O)cc2)C(=O)N[C@@H](Cc2ccc(-c3ccc(C(=O)O)cc3)cc2)C(=O)N[C@@H](Cc2c[nH]c3ccccc23)C(=O)N[C@@H](Cc2ccc(C(=O)O)cc2)C(=O)NCC(=O)N2C[C@H](NCc3ccccc3)C[C@H]2C(=O)N[C@@H]([C@@H](C)c2cccc3ccccc23)C(=O)N[C@@H](CC(=O)O)C(=O)N1C` [Example 82] (cyclo([Bip(4'-COOH)]W[Phe(4-COOH)]G[X11][1Nal(3S-Me)]D[dNMeA]G[Bip(4'-COOH)]W[Dap][dA][hTyr])): the IC50 is 0.0157 nM.
Under `C[C@@H]1C(=O)NCC(=O)N[C@@H](Cc2ccc(-c3ccc(C(=O)O)cc3)cc2)C(=O)N[C@@H](Cc2c[nH]c3ccccc23)C(=O)N[C@@H](CN)C(=O)N[C@H](C)C(=O)N[C@@H](CCc2ccc(O)cc2)C(=O)N[C@@H](Cc2ccc(-c3ccc(C(=O)O)cc3)cc2)C(=O)N[C@@H](Cc2c[nH]c3ccccc23)C(=O)N[C@@H](Cc2ccc(C(=O)O)cc2)C(=O)NCC(=O)N2C[C@H](NCCc3ccccc3)C[C@H]2C(=O)N[C@@H]([C@@H](C)c2cccc3ccccc23)C(=O)N[C@@H](CC(=O)O)C(=O)N1C` [Example 83] (cyclo([Bip(4'-COOH)]W[Phe(4-COOH)]G[X5][1Nal(3S-Me)]D[dNMeA]G[Bip(4'-COOH)]W[Dap][dA][hTyr])) stands 0.0329 nM.
